Where two headings read alike, the source gives them in different places.
Legend:
S. aureus RN450 = assay: In Vitro Anti-Bacterial Activity Assay (MIC), gram positive; assay type: cell-based; settings: Staphylococcus aureus, RN450, 18 h
E. coli mL308 225 = assay: In Vitro Anti-Bacterial Activity Assay (MIC), gram negative; assay type: cell-based; settings: Escherichia coli, ML308225, 18 h
[1] = MIC class, Table 3, read-out: Antibiotic Activity Gram +
[2] = MIC class, Table 3, read-out: Antibiotic Activity Gram −
[3] = MIC class, Table 3 (Continued), read-out: Gram+ activity
[4] = MIC class, Table 3 (Continued), read-out: Gram− activity
[5] = gram positive bacteria, read-out: Antibiotic Activity Gram + (MIC)
[6] = gram negative bacteria, read-out: Antibiotic Activity Gram − (MIC)

Row | SMILES | MIC (S. aureus RN450; [1]) | MIC (E. coli mL308 225; [2]) | MIC (S. aureus RN450; [5]) | MIC (E. coli mL308 225; [6]) | also measured
1 | CN(C)C1C(O)=C(C(N)=O)C(=O)[C@@]2(O)C(O)=C3C(=O)c4c(O)ccc(-c5ccc(NC(=O)Nc6ccc(OC(F)(F)F)cc6)cc5)c4C[C@H]3C[C@@H]12 (some centres unmarked) [GV] | > 4 µg/mL | > 4 µg/mL |  |  | 
2 | CCCCCc1ccc(O)c2c1C[C@H]1C[C@H]3C(N(C)C)C(O)=C(C(N)=O)C(=O)[C@@]3(O)C(O)=C1C2=O (some centres unmarked) |  |  |  |  | MIC (S. aureus RN450; [3]): < 4 µg/mL; MIC (E. coli mL308 225; [4]): < 4 µg/mL
3 | CN(C)c1cc(-c2ccc(C(=O)O)cc2)c(O)c2c1C[C@H]1C[C@H]3[C@H](N(C)C)C(O)=C(C(N)=O)C(=O)[C@@]3(O)C(O)=C1C2=O |  |  |  |  | MIC (S. aureus RN450; [3]): < 4 µg/mL; MIC (E. coli mL308 225; [4]): < 4 µg/mL
4 | CSCc1cc(I)c2c(c1O)C(=O)C1=C(O)[C@]3(O)C(=O)C(C(N)=O)=C(O)[C@@H](N(C)C)[C@@H]3C[C@@H]1C2 |  |  | < 4 µg/mL | < 4 µg/mL | 
5 | CN1CCC(Nc2ccc3c(c2O)C(=O)C2=C(O)[C@]4(O)C(=O)C(C(N)=O)=C(O)[C@@H](N(C)C)[C@@H]4C[C@@H]2C3)CC1 |  |  | < 4 µg/mL | > 4 µg/mL | 
6 | CN(C)[C@@H]1C(O)=C(C(N)=O)C(=O)[C@@]2(O)C(O)=C3C(=O)c4c(O)c(C(C)(C)C)cc(CNC(=O)c5cccnc5)c4C[C@H]3C[C@@H]12 [CE] | > 4 µg/mL | > 4 µg/mL |  |  | 
7 | CCCCOc1cccc2c1C(=O)C1=C(O)[C@]3(O)C(=O)C(C(N)=O)=C(O)[C@@H](N(C)C)[C@@H]3[C@@H](O)[C@@H]1[C@H]2C |  |  | > 4 µg/mL | > 4 µg/mL | 
8 | CN(C)c1cc(NC2CC(C)(C)NC(C)(C)C2)c(O)c2c1C[C@H]1C[C@H]3[C@H](N(C)C)C(O)=C(C(N)=O)C(=O)[C@@]3(O)C(O)=C1C2=O |  |  | > 4 µg/mL | > 4 µg/mL | 
9 | CN(C)[C@@H]1C(O)=C(C(N)=O)C(=O)[C@@]2(O)C(O)=C3C(=O)c4c(O)ccc(/C=C/c5ccc(C(F)(F)F)cc5)c4C[C@H]3C[C@@H]12 |  |  | < 4 µg/mL | > 4 µg/mL | 
10 | CC(=O)Nc1cc(-c2ccccn2)c2c(c1O)C(=O)C1=C(O)[C@]3(O)C(=O)C(C(N)=O)=C(O)[C@@H](N(C)C)[C@@H]3C[C@@H]1C2 |  |  | < 4 µg/mL | > 4 µg/mL | 
11 | CN(C)c1cc(CC2=COc3ccccc3C2)c(O)c2c1C[C@H]1C[C@H]3[C@H](N(C)C)C(O)=C(C(N)=O)C(=O)[C@@]3(O)C(O)=C1C2=O |  |  | < 4 µg/mL | > 4 µg/mL | 
12 | CN(C)CCC(=O)c1cc(C(C)(C)C)c(O)c2c1C[C@H]1C[C@H]3[C@H](N(C)C)C(O)=C(C(N)=O)C(=O)[C@@]3(O)C(O)=C1C2=O |  |  | < 4 µg/mL | < 4 µg/mL | 
13 | COc1ccc(CNCC(F)(F)F)cc1-c1ccc(O)c2c1C[C@H]1C[C@H]3C(N(C)C)C(O)=C(C(N)=O)C(=O)[C@@]3(O)C(O)=C1C2=O (some centres unmarked) [NQ] | < 4 µg/mL | > 4 µg/mL |  |  | 
14 | CCOc1ccc(-c2ccc(O)c3c2C[C@H]2C[C@H]4[C@H](N(C)C)C(O)=C(C(N)=O)C(=O)[C@@]4(O)C(O)=C2C3=O)cc1CN [GJ] | < 4 µg/mL | < 4 µg/mL |  |  | 
15 | CN(C)[C@@H]1C(O)=C(C(N)=O)C(=O)[C@@]2(O)C(O)=C3C(=O)c4c(O)c(CNC(=O)C5CC5)cc(-c5ccc(C(C)(C)C)cc5)c4C[C@H]3C[C@@H]12 |  |  | < 4 µg/mL | < 4 µg/mL | 
16 | CN(C)C1C(O)=C(C(N)=O)C(=O)[C@@]2(O)C(O)=C3C(=O)c4c(O)ccc(NS(C)(=O)=O)c4C[C@H]3C[C@@H]12 (some centres unmarked) [JS] | < 4 µg/mL | > 4 µg/mL |  |  | 
17 | CC(CF)NCc1cc(N(C)C)c2c(c1O)C(=O)C1=C(O)[C@]3(O)C(=O)C(C(N)=O)=C(O)[C@@H](N(C)C)[C@@H]3C[C@@H]1C2 (some centres unmarked) |  |  | < 4 µg/mL |  | MIC (E. coli mL308 225; read-out: Antibiotic Activity Gram − (MIC)): > 4 µg/mL
18 | COc1ccc(C=O)cc1-c1ccc(O)c2c1C[C@H]1C[C@H]3[C@H](N(C)C)C(O)=C(C(N)=O)C(=O)[C@@]3(O)C(O)=C1C2=O [BC] | < 4 µg/mL | < 4 µg/mL |  |  | 
19 | Cc1cc(-c2ccc(O)c3c2C[C@H]2C[C@H]4[C@H](N(C)C)C(O)=C(C(N)=O)C(=O)[C@@]4(O)C(O)=C2C3=O)cc(C)n1 [PD] | < 4 µg/mL | < 4 µg/mL |  |  | 
20 | COc1cccc(C#Cc2ccc(O)c3c2C[C@H]2C[C@H]4[C@H](N(C)C)C(O)=C(C(N)=O)C(=O)[C@@]4(O)C(O)=C2C3=O)c1 |  |  |  |  | MIC (S. aureus RN450; [3]): < 4 µg/mL; MIC (E. coli mL308 225; [4]): < 4 µg/mL
21 | CN(C)c1cc(CN2C3CCC2CC3)c(O)c2c1C[C@H]1C[C@H]3[C@H](N(C)C)C(O)=C(C(N)=O)C(=O)[C@@]3(O)C(O)=C1C2=O |  |  | < 4 µg/mL | > 4 µg/mL | 
22 | COc1ccc(CN2CCCC2)cc1-c1ccc2c(c1O)C(=O)C1=C(O)[C@]3(O)C(=O)C(C(N)=O)=C(O)[C@@H](N(C)C)[C@@H]3[C@@H](O)[C@@H]1[C@H]2C [HC] | > 4 µg/mL | > 4 µg/mL |  |  | 

— patent publication US20150141381A1, “TETRACYCLINE COMPOUNDS HAVING TARGET THERAPEUTIC ACTIVITIES” (Paratek Pharmaceuticals, Inc., priority 2001, published 2015)
